Among the test systems are SNB-78 CNS; P388/ADR leukemia; HOP-18 NSCLC; DMS 114 small cell lung; DMS 273 small cell lung; M19-MEL melanoma; DLD-1 colon; P388 leukemia; SN12K1 renal; LXFL 529 NSCLC; RXF-631 renal.
What all share (experiment): NCI tumour cell line growth inhibition, 48 h

Structures are written as SMILES.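 Protocol summary: plate cells (96-well), add compound at 5 concentrations, incubate 48 h, interpolate endpoints linearly. TGI: concentration producing complete growth inhibition.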

For the compound `CCOCC(=O)N(C)c1cccc2c3c(n(C)c12)CCCCC3`, the TGI was over 100 µM in the assay with SNB-78 CNS; over 100 µM in the assay on P388/ADR leukemia; over 20.9 µM with HOP-18 NSCLC; over 100 µM in the assay with DMS 114 small cell lung; over 31.6 µM in the assay on DMS 273 small cell lung; over 100 µM in the assay on M19-MEL melanoma. The TGI in the assay with DLD-1 colon, in the assay on P388 leukemia and with SN12K1 renal was over 100 µM throughout.
Take `Cn1c2[n+](c3nc(N)[nH]c(=O)c31)C1OC(C2)C(O)C1O` (configuration not stated): the TGI in the assay with SNB-78 CNS, in the assay with LXFL 529 NSCLC, in the assay on HOP-18 NSCLC, in the assay with DMS 114 small cell lung, in the assay on DMS 273 small cell lung and in the assay with RXF-631 renal was over 100 µM each time. In addition, the TGI with M19-MEL melanoma and in the assay on DLD-1 colon was over 100 µM throughout.

For the origin of these results see PubChem BioAssay (NCI).
